Data reported in patent US20250352511A1 (CHINOOK THERAPEUTICS, INC., priority 2022, published 2025).
Read-outs that look alike come from different tables or passages of the source.

Key:
patients with FSGS = experiment: Phase 2 open-label basket study, FSGS cohort: urine protein to creatinine ratio (UPCR); format: in vivo, human; conditions: 0.75 mg atrasentan daily; week 24 vs week 0; twenty patients with FSGS
From the text: Subjects will be enrolled in disease specific cohorts as follows: • Cohort 1: IgAN (with UPCR 0.5 to <1.[…]) • Cohort 2: FSGS • Cohort 2b: FSGS (dose escalation) • Cohort 3: Alport syndrome • Cohort 4: DKD • Cohort 5: FSGS (higher dose cohort) Subjects in Cohorts 2 and 5 (FSGS) include the following characteristics: • Biopsy-confirmed FSGS or documentation of a genetic mutation in a podocyte protein associated with FSGS. […] Urine Protein to Creatinine Ratio (UPCR) will be assessed. Assessment of proteinuria plays an important role in the diagnosis of kidney disease and in monitoring disease activity (Zhao, 2016). UPCR is widely used for proteinuria evaluation in clinical practice. UPCR will be measured using FMV urine sample and a 24-hour urine collection at timepoints. […] Twenty patients with FSGS were enrolled in the study if the inclusion and exclusion criteria of Example 1 were met.

subjects with DKD = conditions: RADAR Phase 2b, cited from earlier work
[1] = 0.75 mg dose; DKD; PK-PD exposure-response model; cited from earlier work
[2] = tested on: patients with diabetic kidney disease; conditions: cited from earlier work
[3] = daily dose 0.75 mg, dose-range finding studies and exposure-response analyses

CCCCN(CCCC)C(=O)CN1C[C@H](c2ccc3c(c2)OCO3)[C@@H](C(=O)O)[C@@H]1c1ccc(OC)cc1 [Atrasentan, (2R,3R,4S)-4-(1,3-benzodioxol-5-yl)-1-[2-(dibutylamino)-2-oxoethyl]-2-(4-methoxyphenyl)pyrrolidine-3-carboxylic acid]
reduction in UPCR compared the baseline measurement (patients with FSGS): 38.3%
fluid retention (body weight, edema incidence, treatment discontinuations) (subjects with DKD; 0.75 mg dose): only minimal evidence for fluid retention
proteinuria reduction (subjects with DKD; 0.75 mg dose): 35%
fluid retention related adverse events (subjects with DKD; 1.25 mg dose): greater fluid retention related adverse events including treatment discontinuation
proteinuria reduction (subjects with DKD; 1.25 mg dose): 38%
Ctrough range [1]: 1.2 to 2.2 ng/mL
UACR [2, 3]: marked reduction
fluid retention [2, 3]: only modest fluid retention
risk of renal events (doubling of serum creatinine or end-stage kidney disease) ([2]; patients with diabetic kidney disease): significantly reducing the risk of renal events
most common adverse events associated with treatment ([2]; subjects with DKD): fluid retention, hemodilution, and vasodilation
